We go through 33 compounds from patent US20090054392A1, “NAPHTHYLPYRIMIDINE, NAPHTHYLPYRAZINE AND NAPHTHYLPYRIDAZINE ANALOGS AND THEIR USE AS AGONISTS OF THE WNT-BETA-CATENIN CELLULAR MESSAGING SYSTEM” (Wyeth, priority 2007, published 2009).

Molecules are shown by their SMILES.

For the series, the system named is Dkk1-LRP5-TCF-Luciferase. The series can be described thus: Functional Dkk1-LRP5-TCF-Luciferase Assay in U2OS Cells. The settings on record: for EC50 / fold induction at 2 µM / fold induction at 20 µM: Homo sapiens, U2OS; for fold induction at 2 µM: read-out: B = TCF ACTIVITY/DMSO CONTROL Fold induction @ 2.0 uM, 2.0 uM compound; for fold induction at 20 µM: read-out: C = TCF ACTIVITY/DMSO CONTROL Fold induction @ 20.0 uM, 20.0 uM compound; for A = MAX FOLD Induction/DMSO CONTROL: maximum fold induction over DMSO control.

Usually EC50 stands for the concentration needed to bring the measured effect to its halfway point. Low values mean higher potency in that assay, high ones lower potency in that assay. `CCN(CCO)C[C@H]1CCN(c2nccc(-c3ccc4ccccc4c3)n2)C1` [2-[ethyl({(3R)-1-[4-(2-naphthyl)pyrimidin-2-yl]pyrrolidin-3-yl}methyl)amino]ethanol]: the EC50 was 2920 nM, the fold induction at 2 µM came out at 2.93, the fold induction at 20 µM came out at 0.15 and the “A = MAX FOLD Induction/DMSO CONTROL” value stood at 3.895 fold.
Turning to `COC(=O)N1CC[C@H](Nc2nccc(-c3ccc4ccccc4c3)n2)C1` [methyl (3S)-3-{[4-(2-naphthyl)pyrimidin-2-yl]amino}pyrrolidine-1-carboxylate], it took 2760 nM to reach a half-maximal effect (EC50), the fold induction at 2 µM was found to be 1.65, the fold induction at 20 µM worked out at 2.12 and the “A = MAX FOLD Induction/DMSO CONTROL” value was determined as 2.725 fold.
Consider `CN1CCN(C[C@H]2CCN(c3nccc(-c4ccc5ccccc5c4)n3)C2)CC1` [2-{(3R)-3-[(4-methylpiperazin-1-yl)methyl]pyrrolidin-1-yl}-4-(2-naphthyl)pyrimidine], for which the fold induction at 2 µM amounted to 2.5, the fold induction at 20 µM is 0.01 and the “A = MAX FOLD Induction/DMSO CONTROL” value is 2.180 fold.
On to `CN(c1nccc(-c2ccc3ccccc3c2)n1)C1CCNCC1` [N-methyl-4-(2-naphthyl)-N-piperidin-4-ylpyrimidin-2-amine], for which the EC50 was 1800 nM, the fold induction at 2 µM is 2.65, the fold induction at 20 µM turned out to be 1.35 and the “A = MAX FOLD Induction/DMSO CONTROL” value was 2.320 fold.
Regarding `CC(=O)N(CC(F)(F)F)[C@H]1CCN(c2nccc(-c3ccc4ccccc4c3)n2)C1` [N-{(3S)-1-[4-(2-naphthyl)pyrimidin-2-yl]pyrrolidin-3-yl}-N-(2,2,2-trifluoroethyl)acetamide], the fold induction at 2 µM was found to be 1.23.
On the same count and under the same terms, the figure for `O=C([C@H]1CCCN1c1nccc(-c2ccc3ccccc3c2)n1)N1CCCCC1` [4-(2-naphthyl)-2-[(2R)-2-(piperidin-1-ylcarbonyl)pyrrolidin-1-yl]pyrimidine] is 1.01.
With `CCOC(=O)N[C@H]1CCN(c2nccc(-c3ccc4ccccc4c3)n2)C1` [ethyl {(3S)-1-[4-(2-naphthyl)pyrimidin-2-yl]pyrrolidin-3-yl}carbamate], the fold induction at 2 µM is 1.02 and the fold induction at 20 µM is 1.94.
Consider `OCC1CCN(c2nccc(-c3ccc4ccccc4c3)n2)C1` (stereo not drawn) [{1-[4-(2-naphthyl)pyrimidin-2-yl]pyrrolidin-3-yl}methanol], for which the EC50 stood at 925 nM, the fold induction at 2 µM was 2.13, the fold induction at 20 µM turned out to be 1.42 and the “A = MAX FOLD Induction/DMSO CONTROL” value is 1.975 fold.
For the compound `NCC1CCN(c2cc(-c3ccc4ccccc4c3)cnn2)CC1` [1-{1-[5-(2-naphthyl)pyridazin-3-yl]piperidin-4-yl}methanamine], the fold induction at 2 µM amounted to 1.58 and the fold induction at 20 µM is 0.4.
`CCN(CCO)[C@@H]1CCN(c2nccc(-c3ccc4ccccc4c3)n2)C1` [2-(ethyl{(3R)-1-[4-(2-naphthyl)pyrimidin-2-yl]pyrrolidin-3-yl}amino)ethanol]: the fold induction at 2 µM stood at 1.8, the fold induction at 20 µM came out at 5.83 and the “A = MAX FOLD Induction/DMSO CONTROL” value turned out to be 3.430 fold.
`NC[C@H]1CC[C@H](Oc2nccc(-c3ccc4ccccc4c3)n2)CC1` [1-(trans-4-{[4-(2-naphthyl)pyrimidin-2-yl]oxy}cyclohexyl)methanamine] showed a 50% effective concentration (EC50) of 460 nM. This lies in the sub-micromolar range.
Regarding `CC(C)(C)N[C@@H]1CCN(c2nccc(-c3ccc4ccccc4c3)n2)C1` [(3R)—N-(tert-butyl)-1-[4-(2-naphthyl)pyrimidin-2-yl]pyrrolidin-3-amine], the fold induction at 2 µM stood at 1.56 and the fold induction at 20 µM amounted to 0.29.
For `ClCC1CCN(c2nccc(-c3ccc4ccccc4c3)n2)C1` (stereo not drawn) [2-[3-(chloromethyl)pyrrolidin-1-yl]-4-(2-naphthyl)pyrimidine], the fold induction at 2 µM is 1.32 and the fold induction at 20 µM was found to be 0.49.
On to `O=C(N1CCOCC1)N1CC[C@H](Nc2nccc(-c3ccc4ccccc4c3)n2)C1` [N-[(3S)-1-(morpholin-4-ylcarbonyl)pyrrolidin-3-yl]-4-(2-naphthyl)pyrimidin-2-amine], for which the fold induction at 2 µM came out at 1.12 and the fold induction at 20 µM came to 1.94.
For the compound `c1ccc(CN2CCC(CNc3nccc(-c4ccc5ccccc5c4)n3)CC2)cc1` [N-[(1-benzylpiperidin-4-yl)methyl]-4-(2-naphthyl)pyrimidin-2-amine], the fold induction at 20 µM was determined as 1.49.
Turning to `COC(=O)[C@H](NC(=O)OC(C)(C)C)C1CCN(c2nccc(-c3ccc4ccccc4c3)n2)CC1` [methyl (2R)-[(tert-butoxycarbonyl)amino]{1-[4-(2-naphthyl)pyrimidin-2-yl]piperidin-4-yl}acetate], the fold induction at 20 µM turned out to be 0.77.
Consider `CCNC(=O)N1CCC(Nc2nccc(-c3ccc4ccccc4c3)n2)CC1` [N-ethyl-4-{[4-(2-naphthyl)pyrimidin-2-yl]amino}piperidine-1-carboxamide], for which the half-maximal effective concentration (EC50) came to 18200 nM, the fold induction at 2 µM is 1.14, the fold induction at 20 µM is 1.6 and the “A = MAX FOLD Induction/DMSO CONTROL” value is 2.280 fold.
`c1ccc(CCNc2nccc(-c3ccc4ccccc4c3)n2)cc1` [4-(2-naphthyl)-N-(2-phenylethyl)pyrimidin-2-amine]: the fold induction at 2 µM amounted to 1.91.
Turning to `CC(=O)N(C)[C@@H]1CCN(c2nccc(-c3ccc4ccccc4c3)n2)C1` [N-methyl-N-{(3R)-1-[4-(2-naphthyl)pyrimidin-2-yl]pyrrolidin-3-yl}acetamide], a half-maximal response (EC50) required 10000 nM, the fold induction at 2 µM came out at 1.55, the fold induction at 20 µM is 2.71 and the “A = MAX FOLD Induction/DMSO CONTROL” value came out at 2.285 fold.
For the compound `c1ccc2cc(-c3ccnc(N4CC[C@H](CN5CCCCC5)C4)n3)ccc2c1` [4-(2-naphthyl)-2-[(3R)-3-(piperidin-1-ylmethyl)pyrrolidin-1-yl]pyrimidine], the fold induction at 2 µM worked out at 1.21 and the fold induction at 20 µM came out at 1.34.
On to `CS(=O)(=O)N1CCC(CNc2nccc(-c3ccc4ccccc4c3)n2)CC1` [N-{[1-(methylsulfonyl)piperidin-4-yl]methyl}-4-(2-naphthyl)pyrimidin-2-amine], for which the fold induction at 2 µM was found to be 1.54 and the fold induction at 20 µM turned out to be 1.35.
On to `CC(C)(C)OC(=O)N[C@@H]1CCN(c2nccc(-c3ccc4ccccc4c3)n2)C1` [tert-butyl {(3R)-1-[4-(2-naphthyl)pyrimidin-2-yl]pyrrolidin-3-yl}carbamate], for which the fold induction at 2 µM was 1.95.
With `CS(=O)(=O)N1CC[C@H](Nc2nccc(-c3ccc4ccccc4c3)n2)C1` [N-[(3S)-1-(methylsulfonyl)pyrrolidin-3-yl]-4-(2-naphthyl)pyrimidin-2-amine], the concentration giving a half-maximal response (EC50) stood at 2900 nM, the fold induction at 2 µM came out at 1.41, the fold induction at 20 µM is 2.26 and the “A = MAX FOLD Induction/DMSO CONTROL” value stood at 2.585 fold.
Consider `CC(C)Nc1nccc(-c2ccc3ccccc3c2)n1` [N-isopropyl-4-(2-naphthyl)pyrimidin-2-amine], for which the fold induction at 2 µM was 1.64.
Take `CN(c1nccc(-c2ccc3ccccc3c2)n1)C1CCN(CCOC(c2ccccc2)(c2ccccc2)c2ccccc2)CC1` [N-methyl-4-(2-naphthyl)-N-{1-[2-(trityloxy)ethyl]piperidin-4-yl}pyrimidin-2-amine]: the fold induction at 2 µM was found to be 1.14 and the fold induction at 20 µM is 1.02.
With `NCC1CCN(c2nccc(-c3ccc4cc(CN5CCOCC5)ccc4c3)n2)CC1` [1-(1-{4-[6-(morpholin-4-ylmethyl)-2-naphthyl]pyrimidin-2-yl}piperidin-4-yl)methanamine], the fold induction at 2 µM stood at 1.1.
Consider `CN(C)[C@H]1CCN(C(=O)[C@H]2CCCN2c2nccc(-c3ccc4ccccc4c3)n2)C1` [(3S)—N,N-dimethyl-1-{1-[4-(2-naphthyl)pyrimidin-2-yl]-D-prolyl}pyrrolidin-3-amine], for which the fold induction at 2 µM is 1.05, the fold induction at 20 µM turned out to be 2.43 and the “A = MAX FOLD Induction/DMSO CONTROL” value is on record as 2.115 fold.
As for `NCCC1CCN(c2nccc(-c3ccc4ccccc4c3)n2)CC1` [2-{1-[4-(2-naphthyl)pyrimidin-2-yl]piperidin-4-yl}ethanamine], the fold induction at 2 µM was found to be 2.15, the fold induction at 20 µM was 0.005 and the “A = MAX FOLD Induction/DMSO CONTROL” value came to 1.420 fold.
For `CN(C)S(=O)(=O)N[C@H]1CC[C@H](Nc2nccc(-c3ccc4ccccc4c3)n2)CC1` [N,N-dimethyl-N′-(trans-4-{[4-(2-naphthyl)pyrimidin-2-yl]amino}cyclohexyl)sulfamide], the fold induction at 2 µM came to 1.65 and the fold induction at 20 µM is 1.74.
As to `c1ccc2cc(-c3ccnc(NC4CCCNCC4)n3)ccc2c1` (stereo not drawn) [N-[4-(2-naphthyl)pyrimidin-2-yl]azepan-4-amine], a half-maximal response (EC50) required 16100 nM, the fold induction at 2 µM worked out at 1.11, the fold induction at 20 µM was 4.87 and the “A = MAX FOLD Induction/DMSO CONTROL” value amounted to 6.080 fold.
Turning to `CN(C)[C@@H]1CCN([C@H]2CCN(c3nccc(-c4ccc5ccccc5c4)n3)C2)C1` [(3R,3′S)-N,N-dimethyl-1′-[4-(2-naphthyl)pyrimidin-2-yl]-1,3′-bipyrrolidin-3-amine], the EC50 was 1070 nM, the fold induction at 2 µM was 4.17 and the “A = MAX FOLD Induction/DMSO CONTROL” value is recorded as 4.637 fold.
With `c1ccc2cc(-c3ccnc(NCC4CNC4)n3)ccc2c1` [N-(azetidin-3-ylmethyl)-4-(2-naphthyl)pyrimidin-2-amine], the fold induction at 2 µM came out at 1.46, the fold induction at 20 µM came out at 1.15 and the “A = MAX FOLD Induction/DMSO CONTROL” value was found to be 3.140 fold.
On to `NCC1CCN(c2ccnc(-c3ccc4ccccc4c3)n2)CC1` [1-{1-[2-(2-naphthyl)pyrimidin-4-yl]piperidin-4-yl}methanamine], for which the concentration for a half-maximal effect (EC50) was 787 nM, the fold induction at 2 µM is 3.22, the fold induction at 20 µM is 0.003 and the “A = MAX FOLD Induction/DMSO CONTROL” value worked out at 5.673 fold.
